According to patent US12649727B2, “EFGR inhibitor, preparation method therefor and application thereof” (Abbisko Therapeutics Co., Ltd, priority 2020, dated 2026):
pIC50: −log10 of the molar value.

Tests used:
Assay type in all cases: cell-based
[1] = molecular target: Ba/F3 EGFR-V769_D770insASV (Homo sapiens, UniProt P00533, DUP767-769, cells depend on it); experiment: Proliferation experiment of Ba/F3 cell line, EGFR-V769_D770insASV (CellTiter-Glo); conditions: cultured for 72 hrs with compound, CTG analysis, read-out: Ba/F3 EGFR-V769_D770insASV IC50
Sequence of Ba/F3 EGFR-V769_D770insASV (P00533 with tags, fused parts or gaps DUP767-769): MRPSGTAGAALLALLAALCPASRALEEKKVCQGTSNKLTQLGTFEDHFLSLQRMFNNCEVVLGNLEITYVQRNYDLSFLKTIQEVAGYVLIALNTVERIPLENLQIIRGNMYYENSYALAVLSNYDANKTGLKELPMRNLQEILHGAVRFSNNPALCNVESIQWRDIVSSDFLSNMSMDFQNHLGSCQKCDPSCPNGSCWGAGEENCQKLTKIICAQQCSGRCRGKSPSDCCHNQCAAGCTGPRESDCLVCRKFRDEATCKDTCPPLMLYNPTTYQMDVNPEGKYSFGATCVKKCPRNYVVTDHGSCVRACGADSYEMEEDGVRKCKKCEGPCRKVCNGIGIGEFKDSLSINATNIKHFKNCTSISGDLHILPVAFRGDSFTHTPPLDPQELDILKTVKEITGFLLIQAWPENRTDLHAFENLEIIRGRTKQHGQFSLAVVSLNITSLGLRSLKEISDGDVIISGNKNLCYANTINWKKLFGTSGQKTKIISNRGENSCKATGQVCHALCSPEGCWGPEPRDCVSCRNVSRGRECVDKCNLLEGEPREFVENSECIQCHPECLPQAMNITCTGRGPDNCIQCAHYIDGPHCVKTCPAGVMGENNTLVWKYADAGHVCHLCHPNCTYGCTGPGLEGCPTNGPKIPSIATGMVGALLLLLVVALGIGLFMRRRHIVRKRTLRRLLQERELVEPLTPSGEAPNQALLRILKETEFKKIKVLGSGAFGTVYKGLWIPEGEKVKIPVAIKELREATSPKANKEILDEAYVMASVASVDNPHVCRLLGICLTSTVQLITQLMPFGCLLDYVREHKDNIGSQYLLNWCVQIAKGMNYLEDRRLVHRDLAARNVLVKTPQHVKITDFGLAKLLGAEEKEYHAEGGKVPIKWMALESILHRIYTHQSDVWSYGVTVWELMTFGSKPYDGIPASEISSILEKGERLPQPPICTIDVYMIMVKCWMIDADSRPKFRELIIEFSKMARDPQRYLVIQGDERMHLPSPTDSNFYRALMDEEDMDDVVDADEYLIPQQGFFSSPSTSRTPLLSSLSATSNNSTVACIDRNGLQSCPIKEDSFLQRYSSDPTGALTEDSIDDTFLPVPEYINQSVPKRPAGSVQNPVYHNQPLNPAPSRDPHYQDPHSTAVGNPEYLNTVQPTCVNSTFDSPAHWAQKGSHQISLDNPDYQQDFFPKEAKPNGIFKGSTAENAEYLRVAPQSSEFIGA
In short: (§1)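 […] Ba/F3 cells expressing EGFR insertion mutants treated 72 h at 37 °C with 9 concentrations, 3.16-fold dilutions, top 10 μM, 0.1% DMSO, in triplicate. Viability by CellTiter-Glo luminescence with T0 reference plate; IC50 (nM) from non-linear dose-response fit.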

A431 (EGFR-WT) = experiment: Proliferation experiment, A431 cell line (CellTiter-Glo); conditions: Homo sapiens, A-431; A431 cells, cultured for 72 hrs with compound, CTG analysis
[2] = molecular target: Ba/F3 EGFR-D770-N771ins_SVD (Homo sapiens, UniProt P00533, DUP768-770, cells depend on it); experiment: Proliferation experiment of Ba/F3 cell line, EGFR-D770-N771ins_SVD (CellTiter-Glo); conditions: cultured for 72 hrs with compound, CTG analysis, read-out: Ba/F3 EGFR-D770-N771ins_SVD IC50
Sequence of Ba/F3 EGFR-D770-N771ins_SVD (P00533 with tags, fused parts or gaps DUP768-770): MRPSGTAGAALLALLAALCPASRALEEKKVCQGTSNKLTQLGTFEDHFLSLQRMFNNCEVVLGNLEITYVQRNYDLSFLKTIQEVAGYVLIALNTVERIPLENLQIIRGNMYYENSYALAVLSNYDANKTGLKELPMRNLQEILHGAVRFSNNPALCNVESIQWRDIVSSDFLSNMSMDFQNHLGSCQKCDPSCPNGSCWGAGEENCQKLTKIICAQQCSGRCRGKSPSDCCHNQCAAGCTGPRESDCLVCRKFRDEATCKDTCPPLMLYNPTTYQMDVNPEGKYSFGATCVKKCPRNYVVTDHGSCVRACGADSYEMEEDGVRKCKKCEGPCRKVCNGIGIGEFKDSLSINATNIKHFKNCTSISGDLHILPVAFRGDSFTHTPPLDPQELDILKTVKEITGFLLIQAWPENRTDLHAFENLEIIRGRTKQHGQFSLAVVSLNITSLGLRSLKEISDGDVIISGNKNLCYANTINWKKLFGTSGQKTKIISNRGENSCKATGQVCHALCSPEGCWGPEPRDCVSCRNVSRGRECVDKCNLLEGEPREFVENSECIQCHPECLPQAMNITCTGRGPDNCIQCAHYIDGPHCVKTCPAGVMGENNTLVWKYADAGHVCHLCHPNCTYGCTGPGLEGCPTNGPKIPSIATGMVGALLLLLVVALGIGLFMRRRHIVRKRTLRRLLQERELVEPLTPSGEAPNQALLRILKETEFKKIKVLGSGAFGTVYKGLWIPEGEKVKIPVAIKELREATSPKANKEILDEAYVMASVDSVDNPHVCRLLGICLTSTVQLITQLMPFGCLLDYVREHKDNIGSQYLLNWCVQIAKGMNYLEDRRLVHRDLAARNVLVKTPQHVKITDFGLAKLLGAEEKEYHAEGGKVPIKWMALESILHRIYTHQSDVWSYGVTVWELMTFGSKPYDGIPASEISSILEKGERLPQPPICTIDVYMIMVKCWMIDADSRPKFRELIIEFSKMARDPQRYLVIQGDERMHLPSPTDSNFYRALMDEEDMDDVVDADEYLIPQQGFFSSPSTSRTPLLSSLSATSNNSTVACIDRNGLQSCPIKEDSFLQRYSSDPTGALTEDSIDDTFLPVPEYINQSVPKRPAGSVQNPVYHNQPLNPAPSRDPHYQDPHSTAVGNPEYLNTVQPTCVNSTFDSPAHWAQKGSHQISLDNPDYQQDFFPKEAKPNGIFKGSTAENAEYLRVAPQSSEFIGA
In short: as §1

Row | GI50 [1] [nM] | pIC50 (A431 (EGFR-WT)) | GI50 [2] [nM] | Structure (SMILES)
1 | 25.6 | 6.57 | 18 | C=CC(=O)Nc1cc2c(Nc3ccc(F)c(-c4ccccc4F)c3)ncnc2cc1OCCCN1CCN(C)CC1 [Example 39, N-(4-((2′,6-difluoro-[1,1′-biphenyl]-3-yl)amino)-7-(3-(4-methylpiperazin-1-yl)propoxy)quinazolin-6-yl)acrylamide]
2 | 55.6 | 6.54 | 31.8 | C=CC(=O)Nc1cc2c(Nc3ccc(F)c(-c4ccc(F)cc4)c3)ncnc2cc1OCCCN1CCN(C)CC1 [Example 42, N-(4-((4′,6-difluoro-[1,1′-biphenyl]-3-yl)amino)-7-(3-(4-methylpiperazin-1-yl)propoxy)quinazolin-6-yl)acrylamide]
3 | 36.5 | 6.03 | 19.2 | C=CC(=O)Nc1cc2c(Nc3ccc(F)c(-c4ccc(F)cc4)c3)ncnc2cc1OCCCN1CCOCC1 [Example 41, N-(4-((4′,6-difluoro-[1,1′-biphenyl]-3-yl)amino)-7-(3-morpholinopropoxy)quinazolin-6-yl)acrylamide]
4 | 49.3 | 6.55 | 27.8 | C=CC(=O)Nc1cc2c(Nc3ccc(F)c(-c4ncccc4F)c3)ncnc2cc1OCCCN1CCN(C)CC1 [Example 43, N-(4-((4-fluoro-3-(3-fluoropyridin-2-yl)phenyl)amino)-7-(3-(4-methylpiperazin-1-yl)propoxy)quinazolin-6-yl)acrylamide]
5 | 5 | 7.09 | 3.1 | C=CC(=O)Nc1cc2c(Nc3ccnc(-c4ccccc4F)c3)ncnc2cc1OCCCN1CCN(C)CC1 [Example 70, N-(4-((2-(2-fluorophenyl)pyridin-4-yl)amino)-7-(3-(4-methylpiperazin-1-yl)propoxy)quinazolin-6-yl)acrylamide]
6 | 3.8 | 7.39 | 3.2 | C=CC(=O)Nc1cc2c(Nc3ccnc(-c4ccc(F)cc4F)c3)ncnc2cc1OCCCN1CCOCC1 [Example 78, N-(4-((2-(2,4-difluorophenyl)pyridin-4-yl)amino)-7-(3-morpholinopropoxy)quinazolin-6-yl)acrylamide]
7 | 38.1 | 6.01 | 14.1 | C=CC(=O)Nc1cc2c(Nc3cncc(-c4ccccc4F)c3)ncnc2cc1O[C@@H]1CCN(C)C1 [Example 63, (R)-N-(4-((5-(2-fluorophenyl)pyridin-3-yl)amino)-7-((1-methylpyrrolidin-3-yl)oxy)quinazolin-6-yl)acrylamide]
8 | 7.5 | 6.09 | 3.3 | C=CC(=O)Nc1cc2c(Nc3ccnc(-c4ccccc4F)c3)ncnc2cc1OCC [Example 83, N-(4-((2-(2-fluorophenyl)pyridin-4-yl)amino)-7-ethoxyquinazolin-6-yl)acrylamide]
9 | 6.5 | 7.99 | 5.9 | C=C(F)C(=O)Nc1cc2c(Nc3ccnc(-c4ccccc4F)c3)ncnc2cc1O[C@@H]1CCN(C)C1 [Example 66, (R)-2-fluoro-N-(4-((2-(2-fluorophenyl)pyridin-4-yl)amino)-7-((1-methylpyrrolidin-3-yl)oxy)quinazolin-6-yl)acrylamide]
10 | 14.8 | 6.65 | 4.4 | C=C(F)C(=O)Nc1cc2c(Nc3ccnc(-c4ccccc4F)c3)ncnc2cc1N1CCC(O)CC1 [Example 100, 2-fluoro-N-(4-((2-(2-fluorophenyl)pyridin-4-yl)amino)-7-(4-hydroxypiperidin-1-yl)quinazolin-6-yl)acrylamide]
11 | 6.4 | 7.14 | 2.9 | C=CC(=O)Nc1cc2c(Nc3ccnc(-c4c(F)cccc4F)c3)ncnc2cc1O[C@@H]1CCN(C)C1 [Example 76, (R)-N-(4-((2-(2,6-difluorophenyl)pyridin-4-yl)amino)-7-((1-methylpyrrolidin-3-yl)oxy)quinazolin-6-yl)acrylamide]
12 | 9.8 | 7.72 | 2.6 | C=C(F)C(=O)Nc1cc2c(Nc3ccnc(-c4ccccc4F)c3)ncnc2cc1O[C@@H]1CCN(C2COC2)C1 [Example 118, (R)-2-fluoro-N-(4-((2-(2-fluorophenyl)pyridin-4-yl)amino)-7-((1-(oxetan-3-yl)pyrrolidin-3-yl)oxy)quinazolin-6-yl)acrylamide]
13 | 178 | 6.46 | 88.8 | C=CC(=O)Nc1cc2c(Nc3cccc(-c4ccc(F)cc4F)c3)ncnc2cc1O[C@@H]1CCN(C)C1 [Example 8, (R)-N-(4-((2′,4′-difluoro-[1,1′-biphenyl]-3-yl)amino)-7-((1-methylpyrrolidin-3-yl)oxy)quinazolin-6-yl)acrylamide]
14 | 68.3 | 6.34 | 38.3 | C=CC(=O)Nc1cc2c(Nc3cccc(-c4c(F)cccc4F)c3)ncnc2cc1OCCCN1CCN(C)CC1=O [Example 33, N-(4-((2′,6′-difluoro-[1,1′-biphenyl]-3-yl)amino)-7-(3-(4-methyl-2-oxopiperazin-1-yl)propoxy)quinazolin-6-yl)acrylamide]
15 | 5.1 | 6.50 | 3.3 | C=C(F)C(=O)Nc1cc2c(Nc3ccnc(-c4ccccc4F)c3)ncnc2cc1OC [Example 86, 2-fluoro-N-(4-((2-(2-fluorophenyl)pyridin-4-yl)amino)-7-methoxyquinazolin-6-yl)acrylamide]
16 | 7.8 | 7.06 | 2.4 | C=CC(=O)Nc1cc2c(Nc3ccnc(-c4ccccc4F)c3)ncnc2cc1O[C@@H]1CCN(C(C)C)C1 [Example 125, (R)-N-(4-((2-(2-fluorophenyl)pyridin-4-yl)amino)-7-((1-isopropylpyrrolidin-3-yl)oxy)quinazolin-6-yl)acrylamide]
17 | 86.3 | 6.69 | 35.9 | C=CC(=O)Nc1cc2c(Nc3cccc(-c4c(F)cccc4F)c3)ncnc2cc1OCCCN1CCN(C)C(=O)C1 [Example 32, N-(4-((2′,6′-difluoro-[1,1′-biphenyl]-3-yl)amino)-7-(3-(4-methyl-3-oxopiperazin-1-yl)propoxy)quinazolin-6-yl)acrylamide]
18 | 44.6 | 7.29 | 37 | C=CC(=O)Nc1cc2c(Nc3cccc(-c4c(F)cccc4F)c3)ncnc2cc1OCCCN1CCN(C2CC2)CC1 [Example 29, N-(7-(3-(4-cyclopropylpiperazin-1-yl)propoxy)-4-((2′,6′-difluoro-[1,1′-biphenyl]-3-yl)amino)quinazolin-6-yl)acrylamide]
19 | 4.4 | 6.50 | 1.6 | C=CC(=O)Nc1cc2c(Nc3ccnc(-c4ccc(F)cc4F)c3)ncnc2cc1OCCN1CCOCC1 [Example 77, N-(4-((2-(2,4-difluorophenyl)pyridin-4-yl)amino)-7-(2-morpholinoethoxy)quinazolin-6-yl)acrylamide]
20 | 90.9 | 6.29 | 26.1 | C=CC(=O)Nc1cc2c(Nc3cccc(-c4ncc(F)cc4F)c3)ncnc2cc1OCCCN1CCOCC1 [Example 17, N-(4-((3-(3,5-difluoropyridin-2-yl)phenyl)amino)-7-(3-morpholinopropoxy)quinazolin-6-yl)acrylamide]
21 | 47.5 | 6.52 | 31.6 | C=CC(=O)Nc1cc2c(Nc3cccc(-c4c(F)cccc4F)c3)ncnc2cc1O[C@@H]1CCN(C)C1 [Example 37, (R)-N-(4-((2′,6′-difluoro-[1,1′-biphenyl]-3-yl)amino)-7-((1-methylpyrrolidin-3-yl)oxy)quinazolin-6-yl)acrylamide]
22 | 63.6 | 6.00 | 34.5 | C=CC(=O)Nc1cc2c(Nc3cncc(-c4c(F)cccc4F)c3)ncnc2cc1O[C@@H]1CCN(C)C1 [Example 64, (R)-N-(4-((5-(2,6-difluorophenyl)pyridin-3-yl)amino)-7-((1-methylpyrrolidin-3-yl)oxy)quinazolin-6-yl)acrylamide]
23 | 11.5 | 7.68 | 9.5 | CN(C)C/C=C/C(=O)Nc1cc2c(Nc3ccnc(-c4ccccc4F)c3)ncnc2cc1O[C@@H]1CCN(C)C1 [Example 67, (R,E)-4-(dimethylamino)-N-(4-((2-(2-fluorophenyl)pyridin-4-yl)amino)-7-((1-methylpyrrolidin-3-yl)oxy)quinazolin-6-yl)but-2-enamide]
24 | 89 | 7.21 | 37.5 | C=CC(=O)Nc1cc2c(Nc3cccc(-c4ccc(F)cc4)c3)ncnc2cc1OCCCN1CCOCC1 [Example 6, N-(4-((4′-fluoro-[1,1′-biphenyl]-3-yl)amino)-7-(3-morpholinopropoxy)quinazolin-6-yl)acrylamide]
25 | 21 | 6.44 | 22.6 | C=CC(=O)Nc1cc2c(Nc3cccc(-c4c(F)cccc4F)c3)ncnc2cc1OCCCN1CCN(CC)CC1 [Example 28, N-(4-((2′,6′-difluoro-[1,1′-biphenyl]-3-yl)amino)-7-(3-(4-ethylpiperazin-1-yl)propoxy)quinazolin-6-yl)acrylamide]
26 | 97.4 | 7.48 | 52.1 | C=CC(=O)Nc1cc2c(Nc3cccc(-c4c(F)cccc4F)c3)ncnc2cc1OCCN1CCOCC1 [Example 26, N-(4-((2′,6′-difluoro-[1,1′-biphenyl]-3-yl)amino)-7-(2-morpholinoethoxy)quinazolin-6-yl)acrylamide]
27 | 25.5 | 6.16 | 10.1 | C=C(F)C(=O)Nc1cc2c(Nc3ccnc(-c4ccccc4F)c3)ncnc2cc1OCC(F)(F)F [Example 88, 2-fluoro-N-(4-((2-(2-fluorophenyl)pyridin-4-yl)amino)-7-(2,2,2-trifluoroethoxy)quinazolin-6-yl)acrylamide]
